Laboratory results published in patent US9993564B2, “Blood brain barrier shuttle” (Hoffmann-La Roche Inc., priority 2014, dated 2018).

How the values were obtained:
[1] = in vivo phage display selection (4 rounds) with CSF sampling, sequencing of CSF recovered phage clones; parameters: species or system rat; conditions: for Reads: CSF recovered phage clones after 4 rounds of in vivo selection in rats, 924 sequencing in total; for Frequency (%): frequency of each peptide related to the 924 total sequencing runs, CSF, after 4 rounds of in vivo selection in rats
[2] = test system: brain blood vessels and capillaries; assay: immunohistochemistry of intravenously administered phage clones bound to brain vasculature; type: in vivo; conditions: FIG. 5, no staining with empty phage
Source text: Specific phage clones were intravenously administered to allow targeting in vivo. Subsequently, immunohistochemistry was used to detect the phages specifically bound to the brain blood vessels and capillaries. […] ID. NO. 1, SEQ. ID. NO. 6 and SEQ. ID. NO.
ID. NO. 8 is linked to SA through an N-terminal biotin. […] ID. NO.

Substance | Reads [1] | Frequency (%) [1] [%] | staining at brain capillaries in the cortex (immunohistochemistry) [2]
32 (VRDWAYVYSTVL; Brain targeting peptide) [compound 32] | 2 | 0.2 | –
26 (GWIPYDGGNRAR; Brain targeting peptide) [compound 26] | 4 | 0.4 | –
20 (SGSGIGLDRWRV; Brain targeting peptide) [compound 20] | 7 | 0.7 | –
7 (MRWFFSHASQGR; Brain targeting peptide) [compound 7] | 28 | 3.1 | –
17 (RRPAPLIMFRMI; Brain targeting peptide) [compound 17] | 9 | 1.0 | –
13 (DAAESVLVGTVR; Brain targeting peptide) [compound 13] | 15 | 1.7 | –
GRPQKINGARVC [SEQ. ID. NO. 6] | – | – | strong and specific staining
25 (LPGGSPGHILVC; Brain targeting peptide) [compound 25] | 4 | 0.4 | –
8 (RLSSVDSDLSGC; Brain targeting peptide) [compound 8] | 26 | 3.0 | –
34 (AVES; Brain targeting peptide) [compound 34] | 2 | 0.2 | –
10 (YNQSLLQGYRYW; Brain targeting peptide) [compound 10] | 21 | 2.3 | –
11 (RSTASTSYPFFF; Brain targeting peptide) [compound 11] | 17 | 2.2 | –
28 (GCASPASTSFHS; Brain targeting peptide) [compound 28] | 3 | 0.3 | –
2 (LGSVS; Brain targeting peptide) [compound 2] | 137 | 14.8 | –
4 (KVAWRVFSLFWK; Brain targeting peptide) [compound 4] | 57 | 6.1 | –
35 (RPRAQGAL; Brain targeting peptide) [compound 35] | 2 | 0.2 | –
22 (NSHAMSC; Brain targeting peptide) [compound 22] | 5 | 0.6 | –
31 (FLIQWGAVLSRG; Brain targeting peptide) [compound 31] | 2 | 0.3 | –
16 (DVAKVS; Brain targeting peptide) [compound 16] | 10 | 1.0 | –

Substance | Reads [1] | Frequency (%) [1] [%] | staining at brain capillaries in the cortex (immunohistochemistry) [2]
9 (IGTLTT; Brain targeting peptide) [compound 9] | 22 | 2.8 | –
29 (LRPRGAFQRRDFKL; Brain targeting peptide) [compound 29] | 3 | 0.3 | –
23 (STVVCFKGVPTG; Brain targeting peptide) [compound 23] | 5 | 0.5 | –
33 (TAVFSALSMLRG; Brain targeting peptide) [compound 33] | 2 | 0.2 | –
1 (LYVLHSRGLWGFKL; Brain targeting peptide) [compound 1] | 147 | 15.9 | –
12 (ISNRSHKGLMVG; Brain targeting peptide) [compound 12] | 16 | 1.8 | –
3 (GFVRFRLSNTR; Brain targeting peptide) [compound 3] | 115 | 12.4 | –
18 (DPQILMGVLRSIRGFGVKL; Brain targeting peptide) [compound 18] | 9 | 0.9 | –
21 (WGCNGTEWRGLLGIKL; Brain targeting peptide) [compound 21] | 6 | 0.7 | –
15 (YSMVFVGIKL; Brain targeting peptide) [compound 15] | 10 | 1.2 | –
14 (YAWGGGWVLQWF; Brain targeting peptide) [compound 14] | 12 | 1.6 | –
27 (STMRYVGVTCL; Brain targeting peptide) [compound 27] | 3 | 0.4 | –
6 (GRPQKINGARVC; Brain targeting peptide) [compound 6] | 29 | 4.3 | –
24 (TWLFSLG; Brain targeting peptide) [compound 24] | 4 | 0.5 | –
30 (ELVHA; Brain targeting peptide) [compound 30] | 3 | 0.3 | –
5 (SVHGV; Brain targeting peptide) [compound 5] | 40 | 6.1 | –
19 (SRYSIGGNNGVT; Brain targeting peptide) [compound 19] | 7 | 0.9 | –
36 (LWVSVPRARIIQ; Brain targeting peptide) [compound 36] | 2 | 0.2 | –
LYVLHSRGLWGFKL (displayed on T7 phage; Brain targeting peptide) [SEQ. ID. NO. 1] | – | – | strong and specific staining
